# Measured values published in ChEMBL document CHEMBL1121542, “Beta-adrenergic blocking agents. 20. (3-Hydroxyprop-1-enyl)-substituted 1-(aryloxy)-3-(alkylamino)propan-2-ols” (J Med Chem, 1980).
# Active and inactive are the calls of the source. The calls are words filed in the database; no cut-off is given here.
# Tests used:
# Adrenergic receptor beta = experiment: Compound was evaluated in vivo for beta-Adrenoceptor blocking potency in cat and is expressed as total dose, infused over a period of 30 minutes, causing 50% inhibition of the tachycardia (iv administration); NA means not active; format: functional, organism-based; details: Felis catus
# [1] = molecular target: Adrenergic receptor beta (Homo sapiens) (UniProt P08588+P07550+P13945); experiment: Compound was evaluated in vivo for beta-Adrenoceptor blocking potency in cat measured as the degree (percent) of blockade of the vasopressor response at the dose level; format: functional, organism-based; details: Felis catus; target entry is the homologue from another species
SMILES,Inhibition (Adrenergic receptor beta),Inhibition [1]
COc1ccc(/C=C/CO)cc1OCC(O)CNC(C)C (stereo not given),inactive,
CC(C)NCC(O)COc1cc(/C=C/CO)ccc1Br (stereo not given),inactive,
CCOc1cc(/C=C/CO)ccc1OCC(O)CNC(C)C (stereo not given),inactive,

# Now from value to molecule:
Inhibition (Adrenergic receptor beta),Inhibition [1],SMILES
inactive,,C=CCc1cc(/C=C/CO)ccc1OCC(O)CNC(C)(C)C (stereo not given)
,76%,CC(C)(C)NCC(O)COc1ccc(/C=C/CO)cc1Cl (stereo not given)
